Experimental data as given in the supplement of paper PMC10307832.

Compound: NC(=O)c1ccc(N(C(N)=O)c2c(F)cccc2F)nc1-c1ccc(F)cc1F [VX-702]
Test: relative viability (nuclei count vs DMSO), 5 days (fraction); higher = more cells survive
How it was run: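 Lung cancer cell lines received five library-drug doses (not always all listed) spaced by √10, pinned on vehicle-anchored 1536-well plates after an overnight stay at 37 °C. Five days later, with no medium change, nuclei were Hoechst-stained, imaged at 4× and counted with MetaXpress. Viability is treated-well nuclei relative to vehicle-well nuclei, as a median across plates. Passing plates had control CV below 25% and at least one doubling.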

SW 900 showed a relative viability (0.02 µM) of 0.885, a relative viability (0.2 µM) of 0.82 and a relative viability (0.6325 µM) of 0.775. The relative viability (2 µM) was 1.02.
